Assay results taken from publication PMC6212786 (Nucleic Acids Research, 2018).

Tested on: T4 DNA ligase
Assay: blunt-end DNA ligation assay, effect on T4 DNA ligase
Assay type: biochemical, bacteriophage T4
Details: pH 7.5

gp45: T4 sliding clamp, trimeric processivity factor for DNA polymerase
stimulation of blunt-end ligation activity of T4 DNA ligase: did not stimulate
